Assay results taken from paper PMC6979384, “Characterization of the plant homeodomain (PHD) reader family for their histone tail interactions” (Epigenetics & Chromatin, 2020).

Key:
Experiment in all cases: Histone peptide microarray
Format in all cases: binding, human
[1] = system: AIRE (PP); details: GST-tagged AIRE (PP); sheet Array Heatmap; each array performed twice, total n = 4
Outline: (§1)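 Binding of recombinant GST-fused PHD readers (0.5 μM) is detected on an array of 293 histone peptides, modified singly or in combination. An optimized array protocol is followed, and each intensity is the average of quadruplicate measurements with standard deviation.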

[2] = system: BAZ2B; details: GST-tagged BAZ2B; sheet Array Heatmap; each array performed twice, total n = 4
Outline: as §1

[3] = system: BPTF (PB); details: GST-tagged BPTF (PB = PHD + Bromodomain); sheet Array Heatmap; each array performed twice, total n = 4
Outline: as §1

[4] = system: CHD4 (PPCC); details: GST-tagged CHD4 (PPCC = Dual PHD + Dual Chromodomain); sheet Array Heatmap; each array performed twice, total n = 4
Outline: as §1

[5] = system: CHD5 (PCC); details: GST-tagged CHD5 (PCC = PHD + Dual Chromodomain); sheet Array Heatmap; each array performed twice, total n = 4
Outline: as §1

[6] = system: CHD5 (PPCC); details: GST-tagged CHD5 (PPCC = Dual PHD + Dual Chromodomain); sheet Array Heatmap; each array performed twice, total n = 4
Outline: as §1

[7] = system: DIDO1; details: GST-tagged DIDO1; sheet Array Heatmap; each array performed twice, total n = 4
Outline: as §1

[8] = system: DPF2 (PPC2W2); details: GST-tagged DPF2 (PPC2W2 = Dual PHD + C2W2-type Zn-finger); sheet Array Heatmap; each array performed twice, total n = 4
Outline: as §1

[9] = system: ING1; details: GST-tagged ING1; sheet Array Heatmap; each array performed twice, total n = 4
Outline: as §1

[10] = system: ING2; details: GST-tagged ING2; sheet Array Heatmap; each array performed twice, total n = 4
Outline: as §1

[11] = system: ING3; details: GST-tagged ING3; sheet Array Heatmap; each array performed twice, total n = 4
Outline: as §1

[12] = system: ING4; details: GST-tagged ING4; sheet Array Heatmap; each array performed twice, total n = 4
Outline: as §1

[13] = system: ING5; details: GST-tagged ING5; sheet Array Heatmap; each array performed twice, total n = 4
Outline: as §1

[14] = system: KDM4C (TTP); details: GST-tagged KDM4C (TTP = Tandem Tudor domain + PHD); sheet Array Heatmap; each array performed twice, total n = 4
Outline: as §1

[15] = system: KDM5A (1); details: GST-tagged KDM5A (1); sheet Array Heatmap; each array performed twice, total n = 4
Outline: as §1

[16] = system: KDM5A (3); details: GST-tagged KDM5A (3); sheet Array Heatmap; each array performed twice, total n = 4
Outline: as §1

[17] = system: KDM5B (1); details: GST-tagged KDM5B (1); sheet Array Heatmap; each array performed twice, total n = 4
Outline: as §1

[18] = system: KDM5B (3); details: GST-tagged KDM5B (3); sheet Array Heatmap; each array performed twice, total n = 4
Outline: as §1

[19] = system: KDM7A; details: GST-tagged KDM7A; sheet Array Heatmap; each array performed twice, total n = 4
Outline: as §1

[20] = system: MLL5; details: GST-tagged MLL5; sheet Array Heatmap; each array performed twice, total n = 4
Outline: as §1

[21] = system: MORC3 (CW); details: GST-tagged MORC3 (CW = CW-type Zn-finger); sheet Array Heatmap; each array performed twice, total n = 4
Outline: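 GST-tagged PHD finger readers were expressed, purified and applied at 0.5 μM to a microarray of 293 synthetic histone peptides carrying single or combinatorial PTMs, using an optimized protocol. Binding signals are averages with standard deviation from 4 replicates.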

[22] = system: PHF13; details: GST-tagged PHF13; sheet Array Heatmap; each array performed twice, total n = 4
Outline: as §1

[23] = system: PHF21A; details: GST-tagged PHF21A; sheet Array Heatmap; each array performed twice, total n = 4
Outline: as §1

[24] = system: PHF23; details: GST-tagged PHF23; sheet Array Heatmap; each array performed twice, total n = 4
Outline: as §1

[25] = system: PHF2; details: GST-tagged PHF2; sheet Array Heatmap; each array performed twice, total n = 4
Outline: as §1

[26] = system: PHF8; details: GST-tagged PHF8; sheet Array Heatmap; each array performed twice, total n = 4
Outline: as §1

[27] = system: PHRF1 (RP); details: GST-tagged PHRF1 (RP); sheet Array Heatmap; each array performed twice, total n = 4
Outline: as §1

[28] = system: RAG2; details: GST-tagged RAG2; sheet Array Heatmap; each array performed twice, total n = 4
Outline: as §1

[29] = system: SP140L; details: GST-tagged SP140L; sheet Array Heatmap; each array performed twice, total n = 4
Outline: as §1

[30] = system: TAF3; details: GST-tagged TAF3; sheet Array Heatmap; each array performed twice, total n = 4
Outline: as §1

[31] = system: TRIM66 (PB); details: GST-tagged TRIM66 (PB = PHD + Bromodomain); sheet Array Heatmap; each array performed twice, total n = 4
Outline: as §1

Substance: H3R2me2a + T3p + K4me3 + K9ac + K14ac + K18ac: H3 1-20
- Array Heatmap signal (histone peptide microarray) [1]: 0.414
- Array Heatmap signal (histone peptide microarray) [2]: 0.4718
- Array Heatmap signal (histone peptide microarray) [3]: 0.3469
- Array Heatmap signal (histone peptide microarray) [4]: 0.601
- Array Heatmap signal (histone peptide microarray) [5]: 0.7369
- Array Heatmap signal (histone peptide microarray) [6]: 0.5374
- Array Heatmap signal (histone peptide microarray) [7]: 0.7634
- Array Heatmap signal (histone peptide microarray) [8]: 0.7018
- Array Heatmap signal (histone peptide microarray) [9]: 0.5919
- Array Heatmap signal (histone peptide microarray) [10]: 0.6041
- Array Heatmap signal (histone peptide microarray) [11]: 0.4704
- Array Heatmap signal (histone peptide microarray) [12]: 0.4544
- Array Heatmap signal (histone peptide microarray) [13]: 0.3446
- Array Heatmap signal (histone peptide microarray) [14]: 0.4624
- Array Heatmap signal (histone peptide microarray) [15]: 0.4561
- Array Heatmap signal (histone peptide microarray) [16]: 0.4737
- Array Heatmap signal (histone peptide microarray) [17]: 0.6524
- Array Heatmap signal (histone peptide microarray) [18]: 0.4463
- Array Heatmap signal (histone peptide microarray) [19]: 0.3252
- Array Heatmap signal (histone peptide microarray) [20]: 0.5392
- Array Heatmap signal (histone peptide microarray) [21]: 0.4346
- Array Heatmap signal (histone peptide microarray) [22]: 0.5933
- Array Heatmap signal (histone peptide microarray) [23]: 0.4332
- Array Heatmap signal (histone peptide microarray) [24]: 0.5518
- Array Heatmap signal (histone peptide microarray) [25]: 0.6236
- Array Heatmap signal (histone peptide microarray) [26]: 0.377
- Array Heatmap signal (histone peptide microarray) [27]: 0.4697
- Array Heatmap signal (histone peptide microarray) [28]: 0.2569
- Array Heatmap signal (histone peptide microarray) [29]: 0.3444
- Array Heatmap signal (histone peptide microarray) [30]: 0.2554
- Array Heatmap signal (histone peptide microarray) [31]: 0.5775

Substance: H3R2me2a + T3p + K4me3: H3 1-20
- Array Heatmap signal (histone peptide microarray) [1]: 0.4234
- Array Heatmap signal (histone peptide microarray) [2]: 0.443
- Array Heatmap signal (histone peptide microarray) [3]: 0.3598
- Array Heatmap signal (histone peptide microarray) [4]: 0.6044
- Array Heatmap signal (histone peptide microarray) [5]: 0.7634
- Array Heatmap signal (histone peptide microarray) [6]: 0.5403
- Array Heatmap signal (histone peptide microarray) [7]: 0.7496
- Array Heatmap signal (histone peptide microarray) [8]: 0.687
- Array Heatmap signal (histone peptide microarray) [9]: 0.5674
- Array Heatmap signal (histone peptide microarray) [10]: 0.5913
- Array Heatmap signal (histone peptide microarray) [11]: 0.4974
- Array Heatmap signal (histone peptide microarray) [12]: 0.4572
- Array Heatmap signal (histone peptide microarray) [13]: 0.3525
- Array Heatmap signal (histone peptide microarray) [14]: 0.4695
- Array Heatmap signal (histone peptide microarray) [15]: 0.4435
- Array Heatmap signal (histone peptide microarray) [16]: 0.5129
- Array Heatmap signal (histone peptide microarray) [17]: 0.6049
- Array Heatmap signal (histone peptide microarray) [18]: 0.5351
- Array Heatmap signal (histone peptide microarray) [19]: 0.3305
- Array Heatmap signal (histone peptide microarray) [20]: 0.5468
- Array Heatmap signal (histone peptide microarray) [21]: 0.479
- Array Heatmap signal (histone peptide microarray) [22]: 0.6175
- Array Heatmap signal (histone peptide microarray) [23]: 0.4298
- Array Heatmap signal (histone peptide microarray) [24]: 0.5238
- Array Heatmap signal (histone peptide microarray) [25]: 0.6351
- Array Heatmap signal (histone peptide microarray) [26]: 0.3942
- Array Heatmap signal (histone peptide microarray) [27]: 0.4955
- Array Heatmap signal (histone peptide microarray) [28]: 0.2527
- Array Heatmap signal (histone peptide microarray) [29]: 0.3541
- Array Heatmap signal (histone peptide microarray) [30]: 0.272
- Array Heatmap signal (histone peptide microarray) [31]: 0.6445

Substance: H3R2me2a: H3 1-20 [Peptide H3R2me2a]
- Array Heatmap signal (histone peptide microarray) [1]: 0.3953
- Array Heatmap signal (histone peptide microarray) [2]: 0.4186
- Array Heatmap signal (histone peptide microarray) [3]: 0.3326
- Array Heatmap signal (histone peptide microarray) [4]: 0.6459
- Array Heatmap signal (histone peptide microarray) [5]: 0.7924
- Array Heatmap signal (histone peptide microarray) [6]: 0.5177
- Array Heatmap signal (histone peptide microarray) [7]: 0.6992
- Array Heatmap signal (histone peptide microarray) [8]: 0.6507
- Array Heatmap signal (histone peptide microarray) [9]: 0.5498
- Array Heatmap signal (histone peptide microarray) [10]: 0.6004
- Array Heatmap signal (histone peptide microarray) [11]: 0.4743
- Array Heatmap signal (histone peptide microarray) [12]: 0.442
- Array Heatmap signal (histone peptide microarray) [13]: 0.3271
- Array Heatmap signal (histone peptide microarray) [14]: 0.4374
- Array Heatmap signal (histone peptide microarray) [15]: 0.4227
- Array Heatmap signal (histone peptide microarray) [16]: 0.4981
- Array Heatmap signal (histone peptide microarray) [17]: 0.5237
- Array Heatmap signal (histone peptide microarray) [18]: 0.4682
- Array Heatmap signal (histone peptide microarray) [19]: 0.3073
- Array Heatmap signal (histone peptide microarray) [20]: 0.5223
- Array Heatmap signal (histone peptide microarray) [21]: 0.4345
- Array Heatmap signal (histone peptide microarray) [22]: 0.5929
- Array Heatmap signal (histone peptide microarray) [23]: 0.4684
- Array Heatmap signal (histone peptide microarray) [24]: 0.5039
- Array Heatmap signal (histone peptide microarray) [25]: 0.5486
- Array Heatmap signal (histone peptide microarray) [26]: 0.3491
- Array Heatmap signal (histone peptide microarray) [27]: 0.516
- Array Heatmap signal (histone peptide microarray) [28]: 0.2465
- Array Heatmap signal (histone peptide microarray) [29]: 0.3569
- Array Heatmap signal (histone peptide microarray) [30]: 0.2736
- Array Heatmap signal (histone peptide microarray) [31]: 0.568
